Reference: US20220388969A1, “SUBSTITUTED 3,4-DIHYDROQ[…] THE TREATMENT AND PROPHYLAXIS OF HEPATITIS B VIRUS INFECTION” (priority 2019, published 2022)

Legend:
[1] = system: HBeAg level in HepDES19 cells (surrogate marker for HBV cccDNA); test: Engineered HepDES19 primary screen assay (HBeAg as surrogate marker for cccDNA); format: cell-based; details: Hepatitis B virus, 120 h; HepDES19 cells, 5 days incubation with compound, HBeAg ELISA; read-out: IC50 (HBeAg level, HepDES19 primary screen assay)
Description: The assay was employed to screen for novel cccDNA inhibitors. HepDES19 is a cccDNA-producing cell line. In this cell line, HBeAg in the cell culture supernatant as surrogate marker, as HBeAg production depends on cccDNA level and activity. HepDES19 is an engineered cell line which contains a 1.1 unit length HBV genome, and pgRNA transcription from the transgene is controlled by Tetracycline (Tet). In the absence of Tet, pgRNA transcription will be induced, but HBV e antigen (HBeAg) could not be produced from this pgRNA due to very short leader sequence before the HBeAg start codon and the start codon is disrupted. Only after cccDNA is formed, the missing leader sequence and start codon mutation would be restored from the 3′-terminal redundancy of pgRNA, and then HBeAg could be synthesized. Therefore, HBeAg could be used as a surrogate marker for cccDNA (Zhou, T. et al., Antiviral Res.(2006), 72(2), 116-124; Guo, H. et al., J. Virol. (2007), 81(22), 12472-12484).
HepDES19 cells were seeded at 2×10^6 cells per T150 flask and cultured with the culture medium (Dulbecco's Modified Eagle Medium: Nutrient Mixture F-12 [DMEM-F12, Gibco Cat. 11320-82], 10% Fetal Bovine Serum [FBS, Clontech Cat. 631101], 0.1 mM Non-Essential Amino Acids Solution [NEAA, Gibco Cat. 11140-050], 50 μg/mL Penicillin-Streptomycin [PS, Invitrogen Cat. 15140-163], 500 μg/mL Geneticin [G418, Invitrogen Cat. 10131-027]) containing 3 μg/mL Tet (Sigma, Cat. 87128) for 5 days. Cells were then seeded at 4×10^6 cells per T150 in the same culture medium as described above in the absence of Tet for 8 days. Cells were then harvested and frozen at density of 2×10^6 cells per mL. For compound testing, the frozen cells were thawed and seeded into 96-well plates at a density of 6 ×10^4 cells per well. At 24hours after seeding, half log serial dilutions of compounds made with Dimethyl sulfoxide (DMSO, Sigma, Cat. D2650) were further diluted with the same culture medium as described above before they were added to the cells to reach desired final compound concentrations and 1% DMSO concentration. Plates were then incubated at 37° C. for another 5 days before measurement of HBeAg level and cell viability. Intracellular HBeAg level were measured with enzyme-linked immunosorbent assay (ELISA) kit (Shanghai Kehua Diagnostic Medical Products Co., Ltd). Cell viability was assessed using Cell Counting Kit-8 (DonJindo, Cat. CK04-20). IC50 values were derived from the dose-response curve using 4 parameter logistic curve fit method.
The compounds of the present invention were tested for their capacity to inhibit extracellular HBeAg level as described herein.

[2] = system: HBsAg in HBV-infected primary human hepatocytes; test: Cryopreserved primary human hepatocytes (PHH) HBV infection assay, extracellular HBsAg; format: cell-based; details: Hepatitis B virus, Hepatocyte, 216 h, read-out: HBsAg IC50
Protocol: This assay is used to confirm the anti-HBV effect of the compounds in HBV PHH infection assay. Cryopreserved PHH (BioreclamationlVT, Lot YJM) was thawed at 37° C. and gently transferred into pre-warmed InVitroGRO HT medium (BioreclamationIVT, Cat. S03317). The mixture was centrifuged at 70 relative centrifugal force (RCF) for 3 minutes at RT, and the supernatant was discarded. Pre-warmed InVitroGRO CP medium (BioreclamationlVT, Cat# S03316) was added to the cell pellet to gently re-suspend cells. The cells were seeded at the density of 5.8×10^4 cells per well to collagen I coated 96-well plate (Gibco, Cat. A1142803) with the InVitroGRO CP medium. All plates were incubated at 37° C. with 5% CO2 and 85% humidity.
At 20 hours after plating, the medium was changed to PHH culture medium (Dulbecco's Modified Eagle Medium (DMEM)/F12 (1:1) (Gibco, Cat. 11320-033), 10% fetal bovine serum (Gibco Cat. 10099141), 100 U/mL penicillin, 100 μg/mL streptomycin (Gibco, Cat. 151401-122), 5 ng/mL human epidermal growth factor (Invitrogen Cat. PHG0311L), 20 ng/mL dexamethasone (Sigma, Cat. D4902) and 250 ng/mL human recombinant insulin (Gibco, Cat. 12585-014)). And the cells were incubated at 37° C. with 5% CO2 and 85% humidity for 4 hours. The medium was then changed to pre-warmed PHH culture medium containing 4% polyethylene glycol (PEG) MW8000 (Sigma, Cat. P1458-50ML) and 1% DMSO (Sigma, Cat. D2650). 5.8×10^6 genomic equivalents of HBV were added into the medium.
At 24 hours post-infection, the cells were gently washed with PBS and refreshed with PHH culture medium supplemented with 1% DMSO, and 0.25 mg/mL Matrix gel (Corning, Cat. 356237) at 200 μL per well. All plates were immediately placed in at 37° C. CO2 incubator.
24 hours later, serial dilutions of compounds made with DMSO were further diluted with the same culture medium (PHH culture medium supplemented with 1% DMSO and 0.25 mg/mL Matrix gel as described above) before they were added to the cells to reach desired final compound concentrations and 1% DMSO concentration. The medium containing the compounds were refreshed every three days.
At 9 days post-compound treatment, extracellular HBsAg level were measured with Chemiluminescence Immuno Assay (CLIA) kit (Autobio, HBsAg Quantitative CLIA).
HBsAg IC50 values were derived from the dose-response curve using 4 parameter logistic curve fit method. The compounds of formula (I) have HBsAg IC50<20 μM, particularly <1 μM.

Row | Structure (SMILES) | IC50 [1] | IC50 [2]
1 | Cc1cc(OCCOC2CC(C(=O)O)C2)ccc1C1=Nc2c(Cl)cccc2C(C)N1 (stereo not shown) [Example 22, 3-[2-[4-(8-chloro-4-methyl-3,4-dihydroquinazolin-2-yl)-3-methyl-phenoxy]ethoxy]cyclobutanecarboxylic Acid] | 8430 nM | 670 nM
2 | O=C(O)C1NC(c2ccc(Br)cc2)=Nc2cc(C(F)(F)F)ccc21 (stereo not shown) [Example 7, 2-(4-bromophenyl)-7-(trifluoromethyl)-3,4-dihydroquinazoline-4-carboxylic Acid] | 3010 nM | 2310 nM
3 | NC(=O)C1NC(c2ccc(Br)cc2)=Nc2c(Cl)cccc21 (stereo not shown) [Example 13, 2-(4-bromophenyl)-8-chloro-3,4-dihydroquinazoline-4-carboxamide] | 70 nM | 2840 nM
4 | Cc1cc(C2=Nc3c(Cl)cccc3C(C(=O)O)N2)ccc1Br (stereo not shown) [Example 5, 2-(4-bromo-3-methyl-phenyl)-8-chloro-3,4-dihydroquinazoline-4-carboxylic Acid] | 560 nM | 4370 nM
5 | O=C(O)C1NC(c2ccc(Cl)cc2)=Nc2c(Cl)cccc21 (stereo not shown) [Example 3, 8-chloro-2-(4-chlorophenyl)-3,4-dihydroquinazoline-4-carboxylic Acid] | 10300 nM | 1500 nM
6 | O=C(O)C1NC(c2ccc(Br)cc2)=Nc2c(Cl)cccc21 (stereo not shown) [Example 1, 2-(4-bromophenyl)-8-chloro-3,4-dihydroquinazoline-4-carboxylic Acid] | 5650 nM | 3070 nM
7 | COC(=O)C1NC(c2ccc(Br)cc2)=Nc2c(Cl)cccc21 (stereo not shown) [Example 12, methyl 2-(4-bromophenyl)-8-chloro-3,4-dihydroquinazoline-4-carboxylate] | 330 nM | 1360 nM
8 | COC(=O)c1ccc(-c2csc(C3=Nc4c(Cl)cccc4C(C)N3)n2)cc1 (stereo not shown) [Example 32, methyl 4-[2-(8-chloro-4-methyl-3,4-dihydroquinazolin-2-yl)thiazol-4-yl]benzoate] | 860 nM | 24 nM
9 | COc1ccc(C2=Nc3c(Cl)cccc3C(C(=O)NCCO)N2)cc1 (stereo not shown) [Example 16, 8-chloro-N-(2-hydroxyethyl)-2-(4-methoxyphenyl)-3,4-dihydroquinazoline-4-carboxamide] | 2030 nM | 4540 nM
10 | CC1NC(c2ccc(OCCOC3CC(C(=O)O)C3)cc2)=Nc2cc(C(F)(F)F)ccc21 (stereo not shown) [Example 19, 3-[2-[4-[4-methyl-7-(trifluoromethyl)-3,4-dihydroquinazolin-2-yl]phenoxy]ethoxy]cyclobutanecarboxylic Acid] | 4400 nM | 7630 nM
11 | CC(C)C1NC(c2ccc(Br)cc2)=Nc2c(Cl)cccc21 (stereo not shown) [Example 36, 2-(4-bromophenyl)-8-chloro-4-isopropyl-3,4-dihydroquinazoline] | 6530 nM | 42 nM
12 | CC1NC(c2ccc(OCCOCC(=O)O)cc2)=Nc2c(Cl)cccc21 (stereo not shown) [Example 23, 2-[2-[4-(8-chloro-4-methyl-3,4-dihydroquinazolin-2-yl)phenoxy]ethoxy]acetic Acid] | 1780 nM | 
13 | O=C(O)C1NC(c2cccc(Br)c2)=Nc2cc(C(F)(F)F)ccc21 (stereo not shown) [Example 6, 2-(3-bromophenyl)-7-(trifluoromethyl)-3,4-dihydroquinazoline-4-carboxylic Acid] | 3430 nM | 7180 nM
14 | CC1(C(=O)O)NC(c2ccc(Br)cc2)=Nc2c(Cl)cccc21 (stereo not shown) [Example 11, 2-(4-bromophenyl)-8-chloro-4-methyl-3H-quinazoline-4-carboxylic Acid] | 130 nM | 
15 | CC1NC(c2ccc(OCCO[C@H]3C[C@@H](C(=O)O)C3)cc2)=Nc2c(Cl)cccc21 (stereo partly drawn) [Example 21, cis-3-[2-[4-(8-chloro-4-methyl-3,4-dihydroquinazolin-2-yl)phenoxy]ethoxy]cyclobutanecarboxylic Acid] | 1030 nM | 
16 | CC1NC(c2ccc(OCCOCC(=O)O)cc2)=Nc2cc(C(F)(F)F)ccc21 (stereo not shown) [Example 20, 2-[2-[4-[4-methyl-7-(trifluoromethyl)-3,4-dihydroquinazolin-2-yl]phenoxy]ethoxy]acetic Acid] | 2010 nM | 
17 | CC1NC(c2nc(Br)cs2)=Nc2c(Cl)cccc21 (stereo not shown) [Example 31, 4-bromo-2-(8-chloro-4-methyl-3,4-dihydroquinazolin-2-yl)thiazole] | 2030 nM | 
18 | COc1ccc(C2=Nc3c(Cl)cccc3C(C(=O)O)N2)cc1 (stereo not shown) [Example 4, 8-chloro-2-(4-methoxyphenyl)-3,4-dihydroquinazoline-4-carboxylic Acid] | 880 nM | 1950 nM
19 | CC1NC(c2cccc(Br)c2)=Nc2cc(C(F)(F)F)ccc21 (stereo not shown) [Example 33, 2-(3-bromophenyl)-4-methyl-7-(trifluoromethyl)-3,4-dihydroquinazoline] | 860 nM | 
20 | O=C(O)C1NC(c2ccccc2)=Nc2c(Cl)cccc21 (stereo not shown) [Example 2, 8-chloro-2-phenyl-3,4-dihydroquinazoline-4-carboxylic Acid] | 2990 nM | 415 nM
